# According to the supplement of paper PMC9663587:
# Columns and labels:
# THZ1 = compound: CN(C)C/C=C/C(=O)Nc1ccc(C(=O)Nc2cccc(Nc3ncc(Cl)c(-c4c[nH]c5ccccc45)n3)c2)cc1 [THZ1]; test: GR value, 72 h; higher = faster growth (1 = untreated, <0 = killing);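 note: breast cancer and non-malignant breast epithelial lines, nine half-log doses, viable cells counted by Hoechst and LIVE/DEAD dye imaging versus time-zero plates and DMSO controls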
# Neratinib/HKI272 = compound: CCOc1cc2ncc(C#N)c(Nc3ccc(OCc4ccccn4)c(Cl)c3)c2cc1NC(=O)/C=C/CN(C)C [Neratinib/HKI272]; test: as above
# BSJ-03-123 = compound: CC(=O)c1c(C)c2cnc(Nc3ccc(N4CCN(CCOCCOCCOCCNC(=O)COc5cccc6c5C(=O)N(C5CCC(=O)NC5=O)C6=O)CC4)cn3)nc2n(C2CCCC2)c1=O [BSJ-03-123]; test: as above
# [1] = compound: CC(=O)c1c(C)c2cnc(Nc3ccc(N4CCNCC4)cn3)nc2n(C2CCCC2)c1=O; test: as above
# [2] = compound: CCc1cnn2c(NCc3ccc[n+]([O-])c3)cc(N3CCCC[C@H]3CCO)nc12; test: as above
# [3] = compound: CCN1CCN(Cc2ccc(Nc3ncc(F)c(-c4cc(F)c5nc(C)n(C(C)C)c5c4)n3)nc2)CC1; test: as above
# LEE011/Ribociclib [4] = compound: T1, CN(C)C(=O)c1cc2cnc(Nc3ccc(N4CCNCC4)cn3)nc2n1C1CCCC1 [LEE011/Ribociclib]; test: as above
# Flavopiridol [5] = compound: T2, CN1CC[C@H](c2c(O)cc(O)c3c(=O)cc(-c4ccccc4Cl)oc23)[C@H](O)C1 [Flavopiridol]; test: as above
# [6] = compound: CC(=O)c1c(C)c2cnc(Nc3ccc(N4CCNCC4)cn3)nc2n(C2CCCC2)c1=O; test: increase in dead-cell fraction, 72 h; higher = more death;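 note: breast cancer cell lines in 384-well plates, stained with Hoechst plus LIVE/DEAD far red dye and imaged, cells above an LDR intensity threshold counted dead, Hoechst-negative corpses included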
# [7] = compound: CCN1CCN(Cc2ccc(Nc3ncc(F)c(-c4cc(F)c5nc(C)n(C(C)C)c5c4)n3)nc2)CC1; test: as above
# LEE011/Ribociclib [8] = compound: T1, LEE011/Ribociclib; test: as above
# Flavopiridol [9] = compound: T2, Flavopiridol; test: as above
cell line,measurement,setting,value
SUM149,GR value,THZ1; 0.0001 µM,0.968 GR
same,GR value,THZ1; 0.0003162 µM,0.963 GR
same,GR value,THZ1; 0.001 µM,1.04 GR
same,GR value,THZ1; 0.003162 µM,0.927 GR
same,GR value,THZ1; 0.01 µM,0.923 GR
same,GR value,THZ1; 0.03162 µM,0.704 GR
same,GR value,THZ1; 0.1 µM,0.165 GR
same,GR value,THZ1; 0.3162 µM,-0.351 GR
same,GR value,THZ1; 1 µM,-0.506 GR
same,GR value,Neratinib/HKI272; 0.0003162 µM,1.04 GR
same,GR value,Neratinib/HKI272; 0.001 µM,1.01 GR
same,GR value,Neratinib/HKI272; 0.003162 µM,1.02 GR
same,GR value,Neratinib/HKI272; 0.01 µM,0.895 GR
same,GR value,Neratinib/HKI272; 0.03162 µM,0.663 GR
same,GR value,Neratinib/HKI272; 0.1 µM,0.408 GR
same,GR value,Neratinib/HKI272; 0.3162 µM,0.251 GR
same,GR value,Neratinib/HKI272; 1 µM,0.199 GR
same,GR value,Neratinib/HKI272; 3.162 µM,0.144 GR
same,GR value,BSJ-03-123; 0.001 µM,0.996 GR
same,GR value,BSJ-03-123; 0.003162 µM,0.91 GR
same,GR value,BSJ-03-123; 0.01 µM,0.904 GR
same,GR value,BSJ-03-123; 0.03162 µM,0.794 GR
same,GR value,BSJ-03-123; 0.1 µM,0.81 GR
same,GR value,BSJ-03-123; 0.3162 µM,0.72 GR
same,GR value,BSJ-03-123; 1 µM,0.579 GR
same,GR value,BSJ-03-123; 3.162 µM,0.428 GR
same,GR value,BSJ-03-123; 10 µM,0.0273 GR
same,GR value,[1]; 0.0003162 µM,1.02 GR
same,GR value,[1]; 0.001 µM,1.03 GR
same,GR value,[1]; 0.003162 µM,0.983 GR
same,GR value,[1]; 0.01 µM,0.981 GR
same,GR value,[1]; 0.03162 µM,0.82 GR
same,GR value,[1]; 0.1 µM,0.701 GR
same,GR value,[1]; 0.3162 µM,0.623 GR
same,GR value,[1]; 1 µM,0.567 GR
same,GR value,[1]; 3.162 µM,0.485 GR
same,GR value,[2]; 0.0001 µM,1.01 GR
same,GR value,[2]; 0.0003162 µM,1.04 GR
same,GR value,[2]; 0.001 µM,1.01 GR
same,GR value,[2]; 0.003162 µM,1.03 GR
same,GR value,[2]; 0.01 µM,0.828 GR
same,GR value,[2]; 0.03162 µM,-0.457 GR
same,GR value,[2]; 0.1 µM,-0.575 GR
same,GR value,[2]; 0.3162 µM,-0.578 GR
same,GR value,[2]; 1 µM,-0.561 GR
same,GR value,[3]; 0.001 µM,0.973 GR
same,GR value,[3]; 0.003162 µM,1.02 GR
same,GR value,[3]; 0.01 µM,0.875 GR
same,GR value,[3]; 0.03162 µM,0.751 GR
same,GR value,[3]; 0.1 µM,0.666 GR
same,GR value,[3]; 0.3162 µM,0.562 GR
same,GR value,[3]; 1 µM,0.417 GR
same,GR value,[3]; 3.162 µM,0.375 GR
same,GR value,[3]; 10 µM,0.0944 GR
same,GR value,LEE011/Ribociclib [4]; 0.001 µM,0.951 GR
same,GR value,LEE011/Ribociclib [4]; 0.003162 µM,0.904 GR
same,GR value,LEE011/Ribociclib [4]; 0.01 µM,0.916 GR
same,GR value,LEE011/Ribociclib [4]; 0.03162 µM,0.885 GR
same,GR value,LEE011/Ribociclib [4]; 0.1 µM,0.776 GR
same,GR value,LEE011/Ribociclib [4]; 0.3162 µM,0.771 GR
same,GR value,LEE011/Ribociclib [4]; 1 µM,0.764 GR
same,GR value,LEE011/Ribociclib [4]; 3.162 µM,0.669 GR
same,GR value,LEE011/Ribociclib [4]; 10 µM,0.599 GR
same,GR value,Flavopiridol [5]; 0.0001 µM,0.972 GR
same,GR value,Flavopiridol [5]; 0.0003162 µM,1.01 GR
same,GR value,Flavopiridol [5]; 0.001 µM,0.951 GR
same,GR value,Flavopiridol [5]; 0.003162 µM,0.944 GR
same,GR value,Flavopiridol [5]; 0.01 µM,0.862 GR
same,GR value,Flavopiridol [5]; 0.03162 µM,0.964 GR
same,GR value,Flavopiridol [5]; 0.1 µM,0.788 GR
same,GR value,Flavopiridol [5]; 0.3162 µM,0.177 GR
same,GR value,Flavopiridol [5]; 1 µM,-0.591 GR
same,increase in dead-cell fraction,[6]; 0.0003162 µM,0.0026
same,increase in dead-cell fraction,[6]; 0.001 µM,0.0019
same,increase in dead-cell fraction,[6]; 0.003162 µM,0.0012
same,increase in dead-cell fraction,[6]; 0.01 µM,-0.0029
same,increase in dead-cell fraction,[6]; 0.03162 µM,-0.003
same,increase in dead-cell fraction,[6]; 0.1 µM,0.0002
same,increase in dead-cell fraction,[6]; 0.3162 µM,-0.0014
same,increase in dead-cell fraction,[6]; 1 µM,-0.0001
same,increase in dead-cell fraction,[6]; 3.162 µM,0.0028
same,increase in dead-cell fraction,[7]; 0.001 µM,-0.0036
same,increase in dead-cell fraction,[7]; 0.003162 µM,-0.0058
same,increase in dead-cell fraction,[7]; 0.01 µM,-0.0009
same,increase in dead-cell fraction,[7]; 0.03162 µM,-0.0068
same,increase in dead-cell fraction,[7]; 0.1 µM,-0.0045
same,increase in dead-cell fraction,[7]; 0.3162 µM,-0.0069
same,increase in dead-cell fraction,[7]; 1 µM,-0.0076
same,increase in dead-cell fraction,[7]; 3.162 µM,-0.0046
same,increase in dead-cell fraction,[7]; 10 µM,0.0956
same,increase in dead-cell fraction,LEE011/Ribociclib [8]; 0.001 µM,-0.0066
same,increase in dead-cell fraction,LEE011/Ribociclib [8]; 0.003162 µM,-0.0033
same,increase in dead-cell fraction,LEE011/Ribociclib [8]; 0.01 µM,0.001
same,increase in dead-cell fraction,LEE011/Ribociclib [8]; 0.03162 µM,-0.0061
same,increase in dead-cell fraction,LEE011/Ribociclib [8]; 0.1 µM,-0.0037
same,increase in dead-cell fraction,LEE011/Ribociclib [8]; 0.3162 µM,0.0068
same,increase in dead-cell fraction,LEE011/Ribociclib [8]; 1 µM,0.0043
same,increase in dead-cell fraction,LEE011/Ribociclib [8]; 3.162 µM,0.0014
same,increase in dead-cell fraction,LEE011/Ribociclib [8]; 10 µM,0.0135
same,increase in dead-cell fraction,Flavopiridol [9]; 0.0001 µM,0.0065
same,increase in dead-cell fraction,Flavopiridol [9]; 0.0003162 µM,-0.0003
same,increase in dead-cell fraction,Flavopiridol [9]; 0.001 µM,0.0038
same,increase in dead-cell fraction,Flavopiridol [9]; 0.003162 µM,-0.0072
same,increase in dead-cell fraction,Flavopiridol [9]; 0.01 µM,-0.0008
same,increase in dead-cell fraction,Flavopiridol [9]; 0.03162 µM,0.0051
same,increase in dead-cell fraction,Flavopiridol [9]; 0.1 µM,0.0079
same,increase in dead-cell fraction,Flavopiridol [9]; 0.3162 µM,0.114
same,increase in dead-cell fraction,Flavopiridol [9]; 1 µM,0.787
